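Five compound concentrations were applied to cells in 96-well plates for 48 hours; endpoints were derived by simple linear interpolation of the resulting dose-response curve. The concentration for 50% growth inhibition is given as GI50. Definition used: TGI = concentration required for complete inhibition of growth.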
Columns and labels:
Assay in all cases: growth of human tumour cells (NCI), 48 h
DU-145 prostate = tested on: DU-145 prostate
NCI-H23 lung = tested on: NCI-H23 lung
UO-31 renal = tested on: UO-31 renal
SK-OV-3 ovarian = tested on: SK-OV-3 ovarian
NCI-H226 lung = tested on: NCI-H226 lung
M14 melanoma = tested on: M14 melanoma
NCI-H460 lung = tested on: NCI-H460 lung
MDA-MB-231 breast = tested on: MDA-MB-231 breast
MALME-3M melanoma = tested on: MALME-3M melanoma
UACC-257 melanoma = tested on: UACC-257 melanoma

Row | Structure (SMILES) | GI50 (DU-145 prostate) | TGI (DU-145 prostate) | GI50 (NCI-H23 lung) | TGI (NCI-H23 lung) | GI50 (UO-31 renal) | TGI (UO-31 renal) | GI50 (SK-OV-3 ovarian) | TGI (SK-OV-3 ovarian) | GI50 (NCI-H226 lung) | TGI (NCI-H226 lung) | GI50 (M14 melanoma) | TGI (M14 melanoma) | GI50 (NCI-H460 lung) | TGI (NCI-H460 lung) | GI50 (MDA-MB-231 breast) | TGI (MDA-MB-231 breast) | GI50 (MALME-3M melanoma) | TGI (MALME-3M melanoma) | GI50 (UACC-257 melanoma) | TGI (UACC-257 melanoma)
1 | O=C(Nc1ccc(-c2nc(-c3cccc(OCCN4CCOCC4)c3)c(-c3ccnc(Br)c3)[nH]2)cc1)c1ccccc1 | 6.74 µM | > 100 µM | 2.47 µM | 8.78 µM | 2 µM | 5.58 µM | 2.15 µM | 4.79 µM | 2.94 µM | > 100 µM | 1.8 µM | 4.36 µM | 2.81 µM | 9.3 µM | 2.84 µM | > 100 µM | 1.55 µM | 3.85 µM | 2.23 µM | 6.36 µM
2 | Cc1nc(Nc2ccccn2)sc1C(=O)/C=C/c1ccc(Cl)cc1 | 0.383 µM | > 71.5 µM | 0.567 µM | > 100 µM | 0.662 µM | 15 µM | 0.494 µM | > 100 µM | 1.09 µM | 26 µM | 0.342 µM | > 67.1 µM | 0.353 µM | > 100 µM | 0.366 µM | 3.58 µM | 0.734 µM | 43.8 µM | 22.8 µM | > 100 µM
3 | Cc1ccc(S(=O)(=O)c2nc(-c3ccccc3)oc2S(C)=O)cc1 (configuration not stated) | 1.25 µM | 2.63 µM | 1.91 µM | 3.97 µM | 1.26 µM | 2.53 µM | 15.3 µM | 28.6 µM | 1.96 µM | 4.73 µM | 1.59 µM | 3.25 µM | 2.92 µM | 8.98 µM | 1.47 µM | 2.87 µM | 1.7 µM | 3.47 µM | 1.58 µM | 3.11 µM
4 | C=C1CCC2(C#N)[C@H]3[C@H](CC[C@@H]2C)[C@@H](C)C[C@@H](CC(C)(C)NC(=O)CN2CCC2=O)[C@H]13 (some centres not stated) | 12.1 µM | 41.1 µM | 10.4 µM | 36.7 µM | 10.2 µM | 77.1 µM | 15.8 µM | 50.2 µM | 11.2 µM | 33.7 µM | 4.56 µM | 17.8 µM | 7.81 µM | 20.5 µM | 7.97 µM | 44.3 µM | 8.56 µM | 23.9 µM | 5.4 µM | 26.7 µM
5 | O=C1/C(=C/c2ccccc2)CN(C(=O)CCN2CCCC2)C/C1=C\c1ccccc1 | – | 18.1 µM | – | 4.35 µM | – | 7.73 µM | – | 20.5 µM | – | 13.9 µM | – | 3.62 µM | – | 4.52 µM | – | 3.78 µM | – | 11.4 µM | – | 6.65 µM
6 | COc1cc2c(cc1O)CC1c3c(cc(O)c(OC)c3-2)CCN1C (configuration not stated) | – | > 100 µM | – | > 100 µM | – | > 100 µM | – | > 100 µM | – | > 100 µM | – | > 100 µM | – | > 100 µM | – | > 100 µM | – | > 100 µM | – | > 100 µM
7 | O=C1CCC(N2C(=O)c3ccccc3C2=O)C(=O)N1 (configuration not stated) | – | > 100 µM | – | > 100 µM | – | > 100 µM | – | > 100 µM | > 100 µM | > 100 µM | – | > 100 µM | – | > 100 µM | > 100 µM | > 100 µM | – | > 100 µM | – | > 100 µM
8 | O=c1[nH]c2ccccc2n1CCCN1CCC(n2c(=O)[nH]c3cc(Cl)ccc32)CC1 | – | 39.2 µM | – | 31.2 µM | – | 20.3 µM | – | 51.5 µM | – | 45 µM | – | 29.9 µM | – | 32.2 µM | – | 37.4 µM | – | 32 µM | – | 30.6 µM
9 | Cc1c2cc(Cl)c3ccccc3c2c[n+]2ccccc12 | 12.8 µM | 31.6 µM | 2.74 µM | 23.5 µM | 9.18 µM | > 100 µM | 10.3 µM | 53.5 µM | 1.8 µM | 14.2 µM | 3.62 µM | 15.5 µM | 4.12 µM | 16.9 µM | 11.9 µM | 39.8 µM | 0.378 µM | 2.8 µM | 4.27 µM | 17.9 µM
10 | c1ccc(-c2nc(N3CCOCC3)c3c4c(sc3n2)CCCCCC4)nc1 | 6.93 µM | 19.6 µM | 5.99 µM | 26.5 µM | 1.17 µM | 10.3 µM | 9.25 µM | 22.5 µM | 5 µM | 24 µM | 4.17 µM | 16.5 µM | 3.68 µM | 16 µM | 7.43 µM | 25.9 µM | 3.32 µM | 14.9 µM | 10.9 µM | 23.2 µM
11 | COc1cc(NC(=O)CCSc2nc3ccc(C)cc3c(=O)n2Cc2ccccc2)cc(OC)c1OC | 66 µM | > 100 µM | 26.6 µM | > 100 µM | 11.6 µM | > 100 µM | 4.75 µM | 39.3 µM | 2.66 µM | 12.3 µM | 24.4 µM | > 100 µM | 5.31 µM | > 100 µM | 4.2 µM | 52.8 µM | 4.73 µM | 43.4 µM | 4.96 µM | > 100 µM
